Legend:
Type in all cases: cell-based
[1] = test system: ATCC25922 strain (Escherichia coli); test: Checkerboard antibacterial synergistic activity test with polymyxin E (FIC); set-up: key: FIC≤0.5 synergy; 0.5–1 additive; 1–2 indifferent; ≥2 antagonism; settings: combined with polymyxin E
Procedure, shortened: (§1)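 First, two-fold series of polymyxin E (16–0.015 μg/ml) and compound (256–4 μg/ml) were made in MH broth. Next, combinations went into a 96-well grid, bacterial liquid was added, and plates sat at 37° C. for 16 h. Finally, FIC was computed and classed (≤0.5 synergistic).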

[2] = test system: ATCC9027 strain (Pseudomonas aeruginosa); test: as above; set-up: key: FIC≤0.5 synergy; 0.5–1 additive; 1–2 indifferent; ≥2 antagonism; settings: combined with polymyxin E
Procedure, shortened: as §1

[3] = test system: ATCC19606 strain (Acinetobacter baumannii); test: as above; set-up: key: FIC≤0.5 synergy; 0.5–1 additive; 1–2 indifferent; ≥2 antagonism; settings: combined with polymyxin E
Procedure, shortened: as §1

[4] = test system: ATCC13883 strain (Klebsiella pneumoniae); test: as above; set-up: key: FIC≤0.5 synergy; 0.5–1 additive; 1–2 indifferent; ≥2 antagonism; settings: combined with polymyxin E
Procedure, shortened: as §1

[5] = test system: ATCC25922 strain (Escherichia coli); test: Broth microdilution, antibacterial activity of the compound used alone
Text: (§2) The broth microdilution method was used to test the antibacterial effects of the compounds of the present invention against various Gram-negative bacterial strains when used alone.

[6] = test system: ATCC9027 strain (Pseudomonas aeruginosa); test: as above
Text: as §2

[7] = test system: ATCC19606 strain (Acinetobacter baumannii); test: as above
Text: as §2

[8] = test system: ATCC13883 strain (Klebsiella pneumoniae); test: as above
Text: as §2

In the case of NC(N)=Nc1nc(-c2cccc(Oc3ccccc3I)c2)cs1 [Compound I-96], the “Synergistic activity (FIC value) ATCC25922” value [1] is reported as 0.18, the “Synergistic activity (FIC value) ATCC9027” value [2] is reported as 0.28 and the “Synergistic activity (FIC value) ATCC19606” value [3] is reported as 0.03. For the same molecule, the “Synergistic activity (FIC value) ATCC13883” value [4] was 0.16, the “Antibacterial activity of the compound of Formula I, ATCC25922” value (from here on “Antibacterial activity … ATCC25922”) [5] was 256 µg/mL and the “Antibacterial activity of the compound of Formula I, ATCC9027” value (from here on “Antibacterial activity … ATCC9027”) [6] was 256 µg/mL. The “Antibacterial activity of the compound of Formula I, ATCC19606” value (“Antibacterial activity … ATCC19606” for short) [7] was 256 µg/mL and the “Antibacterial activity of the compound of Formula I, ATCC13883” value (from here on “Antibacterial activity … ATCC13883”) [8] was 256 µg/mL.
With NC(N)=Nc1nc(-c2cccc(Oc3ccc(I)cc3I)c2)cs1 [Compound I-97] the “Synergistic activity (FIC value) ATCC25922” value [1] was 0.2, the “Synergistic activity (FIC value) ATCC9027” value [2] was 0.28 and the “Synergistic activity (FIC value) ATCC19606” value [3] was 0.04. For the same molecule, the “Synergistic activity (FIC value) ATCC13883” value [4] was 0.13, the “Antibacterial activity … ATCC25922” value [5] was 256 µg/mL and the “Antibacterial activity … ATCC9027” value [6] was 256 µg/mL. The “Antibacterial activity … ATCC19606” value [7] was 256 µg/mL and the “Antibacterial activity … ATCC13883” value [8] was 256 µg/mL.
COc1ccc(Oc2cccc(-c3csc(N=C(N)N)n3)c2)c(OC)c1 [Compound I-98] was tested, and the “Synergistic activity (FIC value) ATCC25922” value [1] was 0.14, the “Synergistic activity (FIC value) ATCC9027” value [2] was 0.06 and the “Synergistic activity (FIC value) ATCC19606” value [3] was 0.31. For the same molecule, the “Synergistic activity (FIC value) ATCC13883” value [4] was 0.09, the “Antibacterial activity … ATCC25922” value [5] was 256 µg/mL and the “Antibacterial activity … ATCC9027” value [6] was 256 µg/mL. For the same molecule, the “Antibacterial activity … ATCC19606” value [7] was 256 µg/mL and the “Antibacterial activity … ATCC13883” value [8] was 256 µg/mL.
NC(N)=Nc1nc(-c2cc(Cl)cc(Oc3ccc(Cl)cc3Cl)c2)cs1 [Compound I-99] was tested, and the “Synergistic activity (FIC value) ATCC25922” value [1] was 0.18, the “Synergistic activity (FIC value) ATCC9027” value [2] was 0.28 and the “Synergistic activity (FIC value) ATCC19606” value [3] was 0.03. The “Synergistic activity (FIC value) ATCC13883” value [4] was 0.16, the “Antibacterial activity … ATCC25922” value [5] was 256 µg/mL and the “Antibacterial activity … ATCC9027” value [6] was 256 µg/mL. The “Antibacterial activity … ATCC19606” value [7] was 256 µg/mL and the “Antibacterial activity … ATCC13883” value [8] was 256 µg/mL.
In the case of NC(N)=Nc1nc(-c2cc(F)cc(Oc3ccc(Cl)cc3Cl)c2)cs1 [Compound I-100], the “Synergistic activity (FIC value) ATCC25922” value [1] is reported as 0.15, the “Synergistic activity (FIC value) ATCC9027” value [2] is reported as 0.18 and the “Synergistic activity (FIC value) ATCC19606” value [3] is reported as 0.02. The “Synergistic activity (FIC value) ATCC13883” value [4] was 0.13, the “Antibacterial activity … ATCC25922” value [5] was 128 µg/mL and the “Antibacterial activity … ATCC9027” value [6] was 256 µg/mL. The “Antibacterial activity … ATCC19606” value [7] was 256 µg/mL and the “Antibacterial activity … ATCC13883” value [8] was 256 µg/mL.
Cc1sc(N=C(N)N)nc1-c1ccccc1Oc1ccccn1 [Compound I-101] was tested, and the “Synergistic activity (FIC value) ATCC25922” value [1] was 1.25, the “Synergistic activity (FIC value) ATCC9027” value [2] was 0.52 and the “Synergistic activity (FIC value) ATCC19606” value [3] was 0.25. For the same molecule, the “Synergistic activity (FIC value) ATCC13883” value [4] was 1.25, the “Antibacterial activity … ATCC25922” value [5] was 256 µg/mL and the “Antibacterial activity … ATCC9027” value [6] was 256 µg/mL. For the same molecule, the “Antibacterial activity … ATCC19606” value [7] was 256 µg/mL and the “Antibacterial activity … ATCC13883” value [8] was 256 µg/mL.
For CCc1sc(N=C(N)N)nc1-c1ccccc1Oc1ccc(N2CCOCC2)cc1 [Compound I-102], the “Synergistic activity (FIC value) ATCC25922” value [1] was 1.25, the “Synergistic activity (FIC value) ATCC9027” value [2] was 0.51 and the “Synergistic activity (FIC value) ATCC19606” value [3] was 1.25. For the same molecule, the “Synergistic activity (FIC value) ATCC13883” value [4] was 1.25, the “Antibacterial activity … ATCC25922” value [5] was 256 µg/mL and the “Antibacterial activity … ATCC9027” value [6] was 256 µg/mL. For the same molecule, the “Antibacterial activity … ATCC19606” value [7] was 256 µg/mL and the “Antibacterial activity … ATCC13883” value [8] was 256 µg/mL.
In the case of CS(=O)(=O)c1ccc(Oc2ccccc2-c2nc(N=C(N)N)sc2Cl)cc1 [Compound I-103], the “Synergistic activity (FIC value) ATCC25922” value [1] is reported as 0.53, the “Synergistic activity (FIC value) ATCC9027” value [2] is reported as 1.25 and the “Synergistic activity (FIC value) ATCC19606” value [3] is reported as 1.25. For the same molecule, the “Synergistic activity (FIC value) ATCC13883” value [4] was 1.25, the “Antibacterial activity … ATCC25922” value [5] was 256 µg/mL and the “Antibacterial activity … ATCC9027” value [6] was 256 µg/mL. For the same molecule, the “Antibacterial activity … ATCC19606” value [7] was 256 µg/mL and the “Antibacterial activity … ATCC13883” value [8] was 256 µg/mL.
